Experimental data taken from patent publication US6525001B1, “Substituted pyrimidine and pyridine herbicides” (Mid-American Commercialization Corporation, priority 1997, dated 2003).

Columns and labels:
Assay in all cases: Test B pre-/postemergence
Assay type in all cases: in vivo
Set-up in all cases: key: 0 is no effect; 10 is complete control
[1] = test system: blackgrass (Alopecurus myosuroides)
How it was run: (§1)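 Response scores run from 0, meaning no effect, to 10, meaning complete control, assigned by eye relative to controls twelve to sixteen days after spraying. Treatment was both preemergence on planted seed and postemergence on plants at the 1- to 4-leaf stage.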

[2] = test system: velvetleaf (Abutilon theophrasti)
How it was run: as §1

[3] = test system: momingglory (Ipomoea hederacea)
How it was run: as §1

[4] = test system: cocklebur (Xanthium strumarium)
How it was run: as §1

[5] = test system: wheat (Triticum aestivum)
How it was run: as §1

[6] = test system: sugar beet (Beta vulgaris)
How it was run: as §1

[7] = test system: broadleaf signalgrass (Brachiaria decumbens)
How it was run: as §1

[8] = test system: purple nutsedge (Cyperus rotundus)
How it was run: as §1

[9] = test system: giant foxtail (Setaria faberii)
How it was run: as §1

[10] = test system: pigweed (Amaranthus retroflexus)
How it was run: as §1

corn (Zea mays) = test system: corn (Zea mays)
How it was run: as §1

soybean (Glycine max) = test system: soybean (Glycine max)
How it was run: as §1

[11] = test system: crabgrass (Digitaria sanguinalis)
How it was run: as §1

wild oat (Avena fatua) = test system: wild oat (Avena fatua)
How it was run: as §1

[12] = Preemergence, Rate 62 g/ha, scale of 0 to 10

Cc1cnc(-c2ccc(C(F)(F)F)cc2)nc1C(=O)c1ccc(C(F)(F)F)cc1 [Compound 74]
2: Plant response rating, Velvetleaf ([2]; Rate 250 g/ha, Postemergence) | Plant response rating, Velvetleaf ([2]; Rate 500 g/ha, Postemergence) | Plant response rating, Wheat ([5]; Rate 500 g/ha, Postemergence) | Sugarbeets plant response rating ([6]; Rate 125 g/ha, Postemergence) | Plant response rating, B. signalgrass ([7]; Rate 500 g/ha, Postemergence) | Redroot pigweed plant response rating ([10]; Rate 62 g/ha, Postemergence) | Redroot pigweed plant response rating ([10]; Rate 125 g/ha, Postemergence) | Soybean plant response rating (soybean (Glycine max); Rate 62 g/ha, Postemergence) | Soybean plant response rating (soybean (Glycine max); Rate 125 g/ha, Postemergence) | Plant response rating, Soybean (soybean (Glycine max); Rate 250 g/ha, Postemergence)
3: Plant response rating, Soybean (soybean (Glycine max); Rate 500 g/ha, Postemergence) | Plant response rating, Crabgrass ([11]; Rate 500 g/ha, Postemergence)
0: Plant response rating, Blackgrass [1, 12] | Blackgrass plant response rating ([1]; Rate 62 g/ha, Postemergence) | Blackgrass plant response rating ([1]; Rate 125 g/ha, Postemergence) | Plant response rating, Blackgrass ([1]; Rate 125 g/ha, Preemergence) | Plant response rating, Blackgrass ([1]; Rate 250 g/ha, Postemergence) | Plant response rating, Blackgrass ([1]; Rate 250 g/ha, Preemergence) | Plant response rating, Blackgrass ([1]; Rate 500 g/ha, Preemergence) | Plant response rating, Velvetleaf [2, 12] | Plant response rating, Velvetleaf ([2]; Rate 125 g/ha, Preemergence) | Plant response rating, Velvetleaf ([2]; Rate 250 g/ha, Preemergence) | Plant response rating, Velvetleaf ([2]; Rate 500 g/ha, Preemergence) | Plant response rating, Morningglory [3, 12] | Plant response rating, Morningglory ([3]; Rate 125 g/ha, Preemergence) | Plant response rating, Morningglory ([3]; Rate 250 g/ha, Preemergence) | Plant response rating, Morningglory ([3]; Rate 500 g/ha, Preemergence) | Plant response rating, Cocklebur [4, 12] | Plant response rating, Cocklebur ([4]; Rate 125 g/ha, Preemergence) | Plant response rating, Cocklebur ([4]; Rate 250 g/ha, Preemergence) | Plant response rating, Cocklebur ([4]; Rate 500 g/ha, Preemergence) | Plant response rating, Wheat [5, 12] | Plant response rating, Wheat ([5]; Rate 125 g/ha, Preemergence) | Plant response rating, Wheat ([5]; Rate 250 g/ha, Preemergence) | Plant response rating, Wheat ([5]; Rate 500 g/ha, Preemergence) | Plant response rating, Sugarbeets [6, 12] | Plant response rating, Sugarbeets ([6]; Rate 125 g/ha, Preemergence) | Plant response rating, Sugarbeets ([6]; Rate 250 g/ha, Preemergence) | Plant response rating, Sugarbeets ([6]; Rate 500 g/ha, Preemergence) | B. signalgrass plant response rating ([7]; Rate 62 g/ha, Preemergence) | Plant response rating, B. signalgrass ([7]; Rate 125 g/ha, Preemergence) | Plant response rating, B. signalgrass ([7]; Rate 250 g/ha, Preemergence) | Plant response rating, B. signalgrass ([7]; Rate 500 g/ha, Preemergence) | Plant response rating, Nutsedge [8, 12] | Nutsedge plant response rating ([8]; Rate 62 g/ha, Postemergence) | Nutsedge plant response rating ([8]; Rate 125 g/ha, Postemergence) | Plant response rating, Nutsedge ([8]; Rate 125 g/ha, Preemergence) | Plant response rating, Nutsedge ([8]; Rate 250 g/ha, Postemergence) | Plant response rating, Nutsedge ([8]; Rate 250 g/ha, Preemergence) | Plant response rating, Nutsedge ([8]; Rate 500 g/ha, Preemergence) | Plant response rating, Giant foxtail [9, 12] | Giant foxtail plant response rating ([9]; Rate 62 g/ha, Postemergence) | Giant foxtail plant response rating ([9]; Rate 125 g/ha, Postemergence) | Plant response rating, Giant foxtail ([9]; Rate 125 g/ha, Preemergence) | Plant response rating, Giant foxtail ([9]; Rate 250 g/ha, Preemergence) | Plant response rating, Giant foxtail ([9]; Rate 500 g/ha, Preemergence) | Plant response rating, Redroot pigweed [10, 12] | Plant response rating, Redroot pigweed ([10]; Rate 125 g/ha, Preemergence) | Plant response rating, Redroot pigweed ([10]; Rate 250 g/ha, Preemergence) | Plant response rating, Redroot pigweed ([10]; Rate 500 g/ha, Preemergence) | Plant response rating, Corn (corn (Zea mays); [12]) | Plant response rating, Corn (corn (Zea mays); Rate 125 g/ha, Preemergence) | Plant response rating, Corn (corn (Zea mays); Rate 250 g/ha, Preemergence) | Plant response rating, Corn (corn (Zea mays); Rate 500 g/ha, Preemergence) | Plant response rating, Soybean (soybean (Glycine max); [12]) | Plant response rating, Soybean (soybean (Glycine max); Rate 125 g/ha, Preemergence) | Plant response rating, Soybean (soybean (Glycine max); Rate 250 g/ha, Preemergence) | Plant response rating, Soybean (soybean (Glycine max); Rate 500 g/ha, Preemergence) | Plant response rating, Crabgrass [11, 12] | Crabgrass plant response rating ([11]; Rate 62 g/ha, Postemergence) | Crabgrass plant response rating ([11]; Rate 125 g/ha, Postemergence) | Plant response rating, Crabgrass ([11]; Rate 125 g/ha, Preemergence) | Plant response rating, Crabgrass ([11]; Rate 250 g/ha, Preemergence) | Plant response rating, Wild oats (wild oat (Avena fatua); [12]) | Plant response rating, Wild oats (wild oat (Avena fatua); Rate 125 g/ha, Preemergence) | Plant response rating, Wild oats (wild oat (Avena fatua); Rate 250 g/ha, Preemergence) | Plant response rating, Wild oats (wild oat (Avena fatua); Rate 500 g/ha, Preemergence)
5: Cocklebur plant response rating ([4]; Rate 125 g/ha, Postemergence) | Plant response rating, Cocklebur ([4]; Rate 250 g/ha, Postemergence) | Plant response rating, Cocklebur ([4]; Rate 500 g/ha, Postemergence)
7: Plant response rating, Morningglory ([3]; Rate 250 g/ha, Postemergence) | Plant response rating, Morningglory ([3]; Rate 500 g/ha, Postemergence) | Plant response rating, Sugarbeets ([6]; Rate 500 g/ha, Postemergence)
8: Plant response rating, Redroot pigweed ([10]; Rate 250 g/ha, Postemergence) | Plant response rating, Redroot pigweed ([10]; Rate 500 g/ha, Postemergence)
1: Plant response rating, Blackgrass ([1]; Rate 500 g/ha, Postemergence) | Velvetleaf plant response rating ([2]; Rate 62 g/ha, Postemergence) | Velvetleaf plant response rating ([2]; Rate 125 g/ha, Postemergence) | Morningglory plant response rating ([3]; Rate 62 g/ha, Postemergence) | Morningglory plant response rating ([3]; Rate 125 g/ha, Postemergence) | Cocklebur plant response rating ([4]; Rate 62 g/ha, Postemergence) | Wheat plant response rating ([5]; Rate 62 g/ha, Postemergence) | Wheat plant response rating ([5]; Rate 125 g/ha, Postemergence) | Plant response rating, Wheat ([5]; Rate 250 g/ha, Postemergence) | Sugarbeets plant response rating ([6]; Rate 62 g/ha, Postemergence) | B. signalgrass plant response rating ([7]; Rate 62 g/ha, Postemergence) | B. signalgrass plant response rating ([7]; Rate 125 g/ha, Postemergence) | Plant response rating, B. signalgrass ([7]; Rate 250 g/ha, Postemergence) | Plant response rating, Giant foxtail ([9]; Rate 250 g/ha, Postemergence) | Plant response rating, Giant foxtail ([9]; Rate 500 g/ha, Postemergence) | Corn plant response rating (corn (Zea mays); Rate 62 g/ha, Postemergence) | Corn plant response rating (corn (Zea mays); Rate 125 g/ha, Postemergence) | Plant response rating, Corn (corn (Zea mays); Rate 250 g/ha, Postemergence) | Plant response rating, Corn (corn (Zea mays); Rate 500 g/ha, Postemergence) | Plant response rating, Crabgrass ([11]; Rate 250 g/ha, Postemergence) | Plant response rating, Crabgrass ([11]; Rate 500 g/ha, Preemergence) | Wild oats plant response rating (wild oat (Avena fatua); Rate 62 g/ha, Postemergence) | Wild oats plant response rating (wild oat (Avena fatua); Rate 125 g/ha, Postemergence) | Plant response rating, Wild oats (wild oat (Avena fatua); Rate 250 g/ha, Postemergence) | Plant response rating, Wild oats (wild oat (Avena fatua); Rate 500 g/ha, Postemergence)
6: Plant response rating, Sugarbeets ([6]; Rate 250 g/ha, Postemergence)
